Test [1] relates to paclitaxel/carboplatin resistant H1355. As to the kind of experiment: 6-thio-dG on paclitaxel/carboplatin resistant H1355, cell count. The following applies: 1, 3, 10 μM every three days for one week. It counts as cell-based, human. As for the experimental part: A cell count was performed to measure cell growth/death.
The subject of test [2] is H2087. As to the kind of experiment: GI 50 determination, H2087. The following applies: Homo sapiens, NCI-H2087. The class given is cell-based. As for the experimental part:
Cells of each type listed in Table 2 were seeded in chamber slides.

Test [3] relates to HCT116 colon cancer cell line. The test can be described thus: CellTitreGlo survival, 7 days, HCT116. It counts as cell-based. The following applies: Homo sapiens, HCT-116, 168 h. As for the experimental part: Four different cell lines were treated with nine different doses of 6-thio-dG for 7 days. HCT116 colon cancer cell line (FIG. 9A), HCEC1 normal colonic cell line (FIG. 9C), A549 non-small cell lung cancer cell line (FIG. 9B), and BJ normal fibroblast cell line (FIG. 9D) were each treated. Survival fraction was measured by CellTitreGlo luminescent cell viability assay (Promega).

Test [4] relates to H1693. The test can be described thus: NSCLC panel sensitivity to 6-thio-dG, H1693. The class given is cell-based, human. As for the experimental part:
A panel of NSCLC cell lines was tested for sensitivity to 6-thio-dG by performing a cell count after 1 week treatment. Briefly, cells were treated with 3 μM 6-thio-dG every three days for 1 week. Viable cells were counted at the end of treatment. Each 6-thiodG treated cell line was normalized to its DMSO treated control.
Two isogenic pairs of NSCLC cell lines were studied for sensitization to 6-thio-dG treatment.

The subject of test [5] is HCT116 cells. The conditions noted are these: 3 μM.
Procedure: The TIF assay is based on the co-localization detection of DNA damage by an antibody against DNA damage markers such as gamma-H2AX and telomeres by the telomeric protein TRF2. Briefly, HCT116 cells were plated in 4-well chamber slides and after the cells attached to the surface, either 3 μM 6-thio-dG or 3 μM 6-thio-G was added to the medium at different time points (0, 30 min, 12 h, 24 h, 48 h, 72 h). Slides were rinsed once with PBS and fixed in 4% paraformaldehyde in PBS for 10 min. Then, cells were washed twice with PBS and permeabilized in 0.5% Nonidet-P40 in PBS, blocked with 0.5% Bovine Serum Albumin (BSA) and 0.2% fish gelatin in PBS for 30 min. gamma-H2AX (mouse) (Millipore, Billerica, MA) was diluted 1:1000 and TRF2 (rabbit) (Abcam, Cambridge, MA) was diluted 1:200 in blocking solution and this primary Ab mixture was incubated on cells for 2 h. After three washes with PBST (1×PBS in 0.1% Triton) and 3 washes with PBS, cells were incubated with Alexaflour 488 conjugated goat anti rabbit (1:500) (Invitrogen, Grand Island, NY) and Alexaflour 568 conjugated goat anti mouse (1:500) (Invitrogen) for 40 min, then washed six times with PBS. After drying, the slides were mounted with Vectashield mounting medium with DAPI (Vector Laboratories, Burlingame, CA). […] TIFs were quantified using Imaris software. […]

A value given as a limit tells only on which side of the number the result lay.

`Nc1nc2c(ncn2[C@H]2C[C@H](O)[C@@H](CO)O2)c(=S)[nH]1` [6-thio-dG, 6-thio-2′-deoxyguanosine]: the “sensitivity (cell count)” value in test [1] is on record as “sensitive to all three concentrations”. Halving of growth in test [2] (GI50) required 900 nM. Besides, the half-inhibitory concentration (IC50) – broadly, the midpoint of a concentration-inhibition curve – is 1100 nM in test [3] and over 100000 nM in test [4] (Homo sapiens, NCI-H1693). In addition, the survival rate result in test [4] (H1693, 3 μM every three days for 1 week, normalized to DMSO control) is given as “greater than 50%”. In addition, in test [5] (after 72 h), the “increase in telomeric DNA damage as compared to 6-thio-G” value is 2.8 fold. Besides, the “genomic DNA damage” value in test [5] (compared to 6-thio-G) was “overall increase in genomic DNA damage”.

For the origin of these results see patent publication US12070472B2, “Treatment of drug resistant proliferative diseases with telomerase mediated telomere altering compounds” (The Board of Regents of the University of Texas System, priority 2016, dated 2024).
